From article PMC8667882 (Journal of Enzyme Inhibition and Medicinal Chemistry, 2021)

Tested on: CN (mouse brain extract)
Settings: peptide 25 nM, RII substrate

effect on CN activity at 25 nM: minimal effects on CN activity
Sequence: GPHPVIVIT [pep1s]
